Measurements taken from patent publication US20240208992A1, “MACROCYCLES AS CFTR MODULATORS” (Idorsia Pharmaceuticals Ltd, priority 2021, published 2024).

Molecular target: human F508del-CFTR (Homo sapiens, UniProt P13569, DEL508-508)
Assay: F508del-CFTR cell surface expression (corrector activity), DiscoveRx ß-galactosidase complementation chemiluminescence assay in recombinant U2OS cell line;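 further: U2OS cells co-expressing ProLink-tagged F508del-CFTR and a membrane-anchored enzyme acceptor, where more surface CFTR restores β-galactosidase activity measured by chemiluminescence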
Details: for EC50: EC50, F508del-CFTR cell surface expression, U2OS cells, 16h compound incubation, geomean values; for Emax: U2OS, in relation to Emax of corrector lumacaftor (=100%), arithmetic mean values

Sequence of human F508del-CFTR (P13569 with tags, fused parts or gaps DEL508-508): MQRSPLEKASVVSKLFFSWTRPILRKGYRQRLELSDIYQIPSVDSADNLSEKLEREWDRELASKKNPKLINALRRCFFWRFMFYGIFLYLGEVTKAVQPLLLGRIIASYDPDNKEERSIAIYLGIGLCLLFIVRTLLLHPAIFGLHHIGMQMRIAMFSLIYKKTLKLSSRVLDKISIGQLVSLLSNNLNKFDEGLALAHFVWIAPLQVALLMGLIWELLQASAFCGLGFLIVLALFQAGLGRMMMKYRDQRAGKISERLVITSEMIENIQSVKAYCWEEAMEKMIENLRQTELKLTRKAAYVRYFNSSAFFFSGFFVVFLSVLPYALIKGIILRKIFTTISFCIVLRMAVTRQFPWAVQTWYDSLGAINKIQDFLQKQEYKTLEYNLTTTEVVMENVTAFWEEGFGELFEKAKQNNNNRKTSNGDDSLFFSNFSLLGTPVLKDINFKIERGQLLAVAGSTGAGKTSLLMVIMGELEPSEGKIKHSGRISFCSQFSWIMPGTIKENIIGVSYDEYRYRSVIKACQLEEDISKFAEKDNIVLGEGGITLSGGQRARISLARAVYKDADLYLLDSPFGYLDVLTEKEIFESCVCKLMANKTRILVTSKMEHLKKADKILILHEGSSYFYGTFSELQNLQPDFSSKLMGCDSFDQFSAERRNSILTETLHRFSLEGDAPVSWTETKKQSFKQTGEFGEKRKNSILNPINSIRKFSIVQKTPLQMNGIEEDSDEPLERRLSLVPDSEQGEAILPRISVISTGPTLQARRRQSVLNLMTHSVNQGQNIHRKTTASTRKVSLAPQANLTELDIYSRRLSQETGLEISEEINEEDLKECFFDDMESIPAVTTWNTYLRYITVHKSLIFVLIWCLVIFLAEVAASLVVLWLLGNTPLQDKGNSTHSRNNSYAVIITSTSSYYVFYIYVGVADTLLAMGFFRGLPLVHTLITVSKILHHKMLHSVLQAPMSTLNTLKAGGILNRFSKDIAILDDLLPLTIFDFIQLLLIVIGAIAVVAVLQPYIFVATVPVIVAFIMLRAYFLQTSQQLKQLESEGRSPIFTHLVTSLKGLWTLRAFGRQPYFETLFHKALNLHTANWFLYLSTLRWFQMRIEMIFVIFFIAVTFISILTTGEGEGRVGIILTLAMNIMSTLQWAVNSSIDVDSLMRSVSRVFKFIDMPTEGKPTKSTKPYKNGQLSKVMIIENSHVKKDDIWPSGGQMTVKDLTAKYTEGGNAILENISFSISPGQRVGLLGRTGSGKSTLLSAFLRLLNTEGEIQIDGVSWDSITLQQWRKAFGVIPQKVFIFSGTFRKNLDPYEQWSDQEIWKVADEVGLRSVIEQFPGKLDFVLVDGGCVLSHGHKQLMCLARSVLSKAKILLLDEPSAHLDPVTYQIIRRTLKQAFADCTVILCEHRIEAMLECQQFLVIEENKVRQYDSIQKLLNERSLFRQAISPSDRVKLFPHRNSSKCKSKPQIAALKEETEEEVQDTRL

| Structure (SMILES) | EC50 [nM] | Emax [%] |
| --- | --- | --- |
| COc1cccc(CCNC(=O)[C@@H]2CC(=O)N(C)[C@@H](CC(C)C)C(=O)N(C)C3(CC3)C(=O)N[C@H](Cc3ccccc3)COc3ccnc(OC)c3C(=O)N2)c1 [Example 438, (3′R,9′S,13′S)-3′-benzyl-9′-isobutyl-16′-methoxy-N-(3-methoxyphenethyl)-7′,10′-dimethyl-5′,8′,11′,15′-tetraoxo-2′,3′,4′,5′,8′,9′,10′,11′,12′,13′,14′,15′-dodecahydro-7′H-spiro[cyclopropane-1,6′-pyrido[3,4-p][1]oxa[4,7,10,14]tetraazacycloheptadecine]-13′-carboxamide] | 474 | 422 |
| COc1cccc(CCNC(=O)[C@@H]2CC(=O)N(C)[C@@H](CC(C)C)C(=O)N(C)C3(CC3)C(=O)N[C@H](Cc3ccccc3)COc3cnc4c(F)cccc4c3C(=O)N2)c1 [Example 439, (3′S,7′S,13′R)-13′-benzyl-18′-fluoro-7′-isobutyl-N-(3-methoxyphenethyl)-6′,9′-dimethyl-1′,5′,8′,11′-tetraoxo-2′,3′,4′,5′,6′,7′,8′,9′,11′,12′,13′,14′-dodecahydro-1′H-spiro[cyclopropane-1,10′-[1]oxa[4,7,10,14]tetraazacycloheptadecino[17,16-c]quinoline]-3′-carboxamide] | 253 | 345 |
| Cc1cc(CCNC(=O)[C@@H]2CC(=O)N(C)[C@@H](CC(C)C)C(=O)N(C)C3(CC3)C(=O)N[C@H](Cc3ccccc3)COc3cnc4c(F)cccc4c3C(=O)N2)on1 [Example 440, (3′S,7′S,13′R)-13′-benzyl-18′-fluoro-7′-isobutyl-6′,9′-dimethyl-N-(2-(3-methylisoxazol-5-yl)ethyl)-1′,5′,8′,11′-tetraoxo-2′,3′,4′,5′,6′,7′,8′,9′,11′,12′,13′,14′-dodecahydro-1′H-spiro[cyclopropane-1,10′-[1]oxa[4,7,10,14]tetraazacycloheptadecino[17,16-c]quinoline]-3′-carboxamide] | 788 | 296 |
| COc1cccc(CCNC(=O)[C@@H]2CC(=O)N(C)[C@@H](CC(C)C)C(=O)N(C)CC(=O)N[C@H](Cc3ccccc3)COc3ccc4ncccc4c3C(=O)N2)c1 [Example 441, (3S,7S,13R)-13-benzyl-7-isobutyl-N-(3-methoxyphenethyl)-6,9-dimethyl-1,5,8,11-tetraoxo-1,2,3,4,5,6,7,8,9,10,11,12,13,14-tetradecahydro-[1]oxa[4,7,10,14]tetraazacycloheptadecino[16,17-f]quinoline-3-carboxamide] | 815 | 326 |
| COc1cccc(CCNC(=O)[C@@H]2CC(=O)N(C)[C@@H](CC(C)C)C(=O)N(C)C3(CC3)C(=O)N[C@H](Cc3ccccc3)COc3nc4ccccn4c3C(=O)N2)c1 [Example 442, (3′R,9′S,13′S)-3′-benzyl-9′-isobutyl-N-(3-methoxyphenethyl)-7′,10′-dimethyl-5′,8′,11′,15′-tetraoxo-2′,3′,4′,5′,8′,9′,10′,11′,12′,13′,14′,15′-dodecahydro-7′H-spiro[cyclopropane-1,6′-pyrido[2′,11:2,3]imidazo[4,5-p][1]oxa[4,7,10,14]tetraazacycloheptadecine]-13′-carboxamide] | 443 | 154 |
| Cc1cc(CCNC(=O)[C@@H]2CC(=O)N(C)[C@@H](CC(C)C)C(=O)N3CCCC[C@@H]3C(=O)N[C@H](Cc3ccccc3)COc3cnc4c(F)cccc4c3C(=O)N2)on1 [Example 443, (9S,13S,19aR,22R)-22-benzyl-3-fluoro-13-isobutyl-12-methyl-N-(2-(3-methylisoxazol-5-yl)ethyl)-7,11,14,20-tetraoxo-7,8,9,10,11,12,13,14,17,18,19,19a,20,21,22,23-hexadecahydro-16H-pyrido[2′,1′:6,7][1]oxa[4,7,10,14]tetraazacycloheptadecino[17,16-c]quinoline-9-carboxamide] | 316 | 275 |
| Cc1cc(CCNC(=O)[C@@H]2CC(=O)N(C)[C@@H](CC(C)C)C(=O)N3CCCC[C@@H]3C(=O)N[C@H](Cc3ccccc3)COc3ccnc(C)c3C(=O)N2)on1 [Example 444, (7S,11S,17aR,20R)-20-benzyl-11-isobutyl-4,10-dimethyl-N-(2-(3-methylisoxazol-5-yl)ethyl)-5,9,12,18-tetraoxo-5,6,7,8,9,10,11,12,15,16,17,17a,18,19,20,21-hexadecahydro-14H-dipyrido[2,1-f:3′,4′-p][1]oxa[4,7,10,14]tetraazacycloheptadecine-7-carboxamide] | 1050 | 199 |
| Cc1cc(CCNC(=O)[C@@H]2CC(=O)N(C)[C@@H](CC(C)C)C(=O)N(C[C@H]3CCCCO3)CC(=O)N[C@H](Cc3ccccc3)COc3cnc4ccccc4c3C(=O)N2)on1 [Example 445, (3S,7S,13R)-13-benzyl-7-isobutyl-6-methyl-N-(2-(3-methylisoxazol-5-yl)ethyl)-1,5,8,11-tetraoxo-9-(((R)-tetrahydro-2H-pyran-2-yl)methyl)-1,2,3,4,5,6,7,8,9,10,11,12,13,14-tetradecahydro-[1]oxa[4,7,10,14]tetraazacycloheptadecino[17,16-c]quinoline-3-carboxamide] | 958 | 194 |
| Cc1cc(CCNC(=O)[C@@H]2CC(=O)N(C)[C@@H](CC(C)C)C(=O)N(CC[C@@H]3CCCCO3)CC(=O)N[C@H](Cc3ccccc3)COc3cnc4ccccc4c3C(=O)N2)on1 [Example 446, (3S,7S,13R)-13-benzyl-7-isobutyl-6-methyl-N-(2-(3-methylisoxazol-5-yl)ethyl)-1,5,8,11-tetraoxo-9-(2-((S)-tetrahydro-2H-pyran-2-yl)ethyl)-1,2,3,4,5,6,7,8,9,10,11,12,13,14-tetradecahydro-[1]oxa[4,7,10,14]tetraazacycloheptadecino[17,16-c]quinoline-3-carboxamide] | 900 | 248 |
| COc1cccc(CCNC(=O)[C@@H]2CC(=O)N(C)[C@@H](CC(C)C)C(=O)N(C)C3(CC3)C(=O)N[C@H](Cc3ccccc3)COc3ccc4c(c3C(=O)N2)OCC4)c1 [Example 447, (8R,14S,18S)-8-benzyl-14-isobutyl-N-(3-methoxyphenethyl)-12,15-dimethyl-10,13,16,20-tetraoxo-2,3,7,8,9,10,13,14,15,16,17,18,19,20-tetradecahydro-12H-spiro[benzofuro[7,6-p][1]oxa[4,7,10,14]tetraazacycloheptadecine-11,1′-cyclopropane]-18-carboxamide] | 447 | 220 |
| Cc1cc(CCNC(=O)[C@@H]2CC(=O)N(C)[C@@H](CC(C)C)C(=O)N(C)C3(CC3)C(=O)N[C@H](Cc3ccccc3)COc3nc4ccccn4c3C(=O)N2)on1 [Example 448, (3′R,9′S,13′S)-3′-benzyl-9′-isobutyl-7′,10′-dimethyl-N-(2-(3-methylisoxazol-5-yl)ethyl)-5′,8′,11′,15′-tetraoxo-2′,3′,4′,5′,8′,9′,10′,11′,12′,13′,14′,15′-dodecahydro-7′H-spiro[cyclopropane-1,6′-pyrido[2′,11:2,3]imidazo[4,5-p][1]oxa[4,7,10,14]tetraazacycloheptadecine]-13′-carboxamide] | 961 | 109 |
| COc1cccc(CCNC(=O)[C@@H]2CC(=O)N(C)[C@@H](CC(C)C)C(=O)N(C)CC(=O)N[C@H](Cc3ccccc3)COc3nc4ccccn4c3C(=O)N2)c1 [Example 449, (3R,9S,13S)-3-benzyl-9-isobutyl-N-(3-methoxyphenethyl)-7,10-dimethyl-5,8,11,15-tetraoxo-2,3,4,5,6,7,8,9,10,11,12,13,14,15-tetradecahydropyrido[2′,1′:2,3]imidazo[4,5-p][1]oxa[4,7,10,14]tetraazacycloheptadecine-13-carboxamide] | 543 | 165 |
| COc1cccc(CCNC(=O)[C@@H]2CC(=O)N(C)[C@@H](CC(C)C)C(=O)N(C)CC(=O)N[C@H](Cc3ccccc3)COc3ccc4c(c3C(=O)N2)CCO4)c1 [Example 450, (3S,7S,13R)-13-benzyl-7-isobutyl-N-(3-methoxyphenethyl)-6,9-dimethyl-1,5,8,11-tetraoxo-1,2,3,4,5,6,7,8,9,10,11,12,13,14,19,20-hexadecahydrobenzofuro[4,5-p][1]oxa[4,7,10,14]tetraazacycloheptadecine-3-carboxamide] | 379 | 107 |
| COc1cccc(CCNC(=O)[C@@H]2CC(=O)N(C)[C@@H](CC(C)C)C(=O)N3CCN(CCCO)C[C@@H]3C(=O)N[C@H](Cc3ccccc3)COc3ccc4ccccc4c3C(=O)N2)c1 [Example 451, (4aR,7R,18S,22S)-7-benzyl-3-(3-hydroxypropyl)-22-isobutyl-N-(3-methoxyphenethyl)-21-methyl-5,16,20,23-tetraoxo-2,3,4,4a,5,6,7,8,16,17,18,19,20,21,22,23-hexadecahydro-1H-naphtho[1,2-p]pyrazino[2,1-f][1]oxa[4,7,10,14]tetraazacycloheptadecine-18-carboxamide] | 257 | 307 |
| Cc1cc(CCNC(=O)[C@@H]2CC(=O)N(C)[C@@H](CC(C)C)C(=O)N3CCN(CCCO)C[C@@H]3C(=O)N[C@H](Cc3ccccc3)COc3ccc4ccccc4c3C(=O)N2)on1 [Example 452, (4aR,7R,18S,22S)-7-benzyl-3-(3-hydroxypropyl)-22-isobutyl-21-methyl-N-(2-(3-methylisoxazol-5-yl)ethyl)-5,16,20,23-tetraoxo-2,3,4,4a,5,6,7,8,16,17,18,19,20,21,22,23-hexadecahydro-1H-naphtho[1,2-p]pyrazino[2,1-f][1]oxa[4,7,10,14]tetraazacycloheptadecine-18-carboxamide] | 886 | 292 |
| CC(C)C[C@H]1C(=O)N(C)C2(CC2)C(=O)N[C@H](Cc2ccccc2)COc2cnc3ccccc3c2C(=O)N[C@H](C(=O)NCCc2cccc(-n3nccn3)c2)CC(=O)N1C [Example 453, (3′S,7′S,13′R)-N-(3-(2H-1,2,3-triazol-2-yl)phenethyl)-13′-benzyl-7′-isobutyl-6′,9′-dimethyl-1′,5′,8′,11′-tetraoxo-2′,3′,4′,5′,6′,7′,8′,9′,11′,12′,13′,14′-dodecahydro-1′H-spiro[cyclopropane-1,10′-[1]oxa[4,7,10,14]tetraazacycloheptadecino[17,16-c]quinoline]-3′-carboxamide] | 417 | 251 |
